Measured values: patent US20250098679A1, “HERBICIDAL PYRIDONE DERIVATIVES” (SYNGENTA CROP PROTECTION AG, priority 2021, published 2025)

Key:
Format in all cases: in vivo
Conditions in all cases: evaluated after 13 days
Setaria faberi (SETFA) [1] = experiment: Pre-emergence Test, Setaria faberi (SETFA)
[2] = test system: Echinochloa crus-galli (ECHCG); experiment: Pre-emergence Test, Echinochloa crus-galli (ECHCG)
Zea mays (ZEAMX) [3] = experiment: Pre-emergence Test, Zea mays (ZEAMX)
[4] = test system: Ipomoea hederacea (IPOHE); experiment: Pre-emergence Test, Ipomoea hederacea (IPOHE)
[5] = test system: Amaranthus palmeri (AMAPA); experiment: Pre-emergence Test, Amaranthus palmeri (AMAPA)
[6] = test system: Amaranthus retoflexus (AMARE); experiment: Pre-emergence Test, Amaranthus retoflexus (AMARE)
Setaria faberi (SETFA) [7] = experiment: Post-emergence Test, Setaria faberi (SETFA); design: key to percentage damage caused to the plant, SETFA (five-point scale): 5=81-100%, 4=61-80%, 3=41-60%, 2=21-40%, 1=0-20% damage
Method in brief: (§1)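 Application was a spray of acetone/water (50:50) with 0.5% Tween 20 onto pots of test species sown in standard soil. Unless otherwise stated, the rate was 1000 g/ha. After 13 days under glasshouse conditions (24/16 °C, 65% humidity), injury was scored from 1 (0-20%) to 5 (81-100%).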

[8] = test system: Echinochloa crus-galli (ECHCG); experiment: Post-emergence Test, Echinochloa crus-galli (ECHCG); design: key to percentage damage caused to the plant, ECHCG (five-point scale): 5=81-100%, 4=61-80%, 3=41-60%, 2=21-40%, 1=0-20% damage
Method in brief: as §1

Zea mays (ZEAMX) [9] = experiment: Post-emergence Test, Zea mays (ZEAMX); design: key to percentage damage caused to the plant, ZEAMX (five-point scale): 5=81-100%, 4=61-80%, 3=41-60%, 2=21-40%, 1=0-20% damage
Method in brief: as §1

[10] = test system: Ipomoea hederacea (IPOHE); experiment: Post-emergence Test, Ipomoea hederacea (IPOHE); design: key to percentage damage caused to the plant, IPOHE (five-point scale): 5=81-100%, 4=61-80%, 3=41-60%, 2=21-40%, 1=0-20% damage
Method in brief: as §1

[11] = test system: Amaranthus palmeri (AMAPA); experiment: Post-emergence Test, Amaranthus palmeri (AMAPA); design: key: 5=81-100%, 4=61-80%, 3=41-60%, 2=21-40%, 1=0-20% damage
Method in brief: as §1

[12] = test system: Amaranthus retoflexus (AMARE); experiment: Post-emergence Test, Amaranthus retoflexus (AMARE); design: key to percentage damage caused to the plant, AMARE (five-point scale): 5=81-100%, 4=61-80%, 3=41-60%, 2=21-40%, 1=0-20% damage
Method in brief: as §1

Compound	Pre-emergence Test SETFA, percentage damage caused to the plant (five-point scale) (Setaria faberi (SETFA) [1]; 1000 g/ha)	Pre-emergence Test ECHCG, percentage damage caused to the plant (five-point scale) ([2]; 1000 g/ha)	Pre-emergence Test ZEAMX, percentage damage caused to the plant (five-point scale) (Zea mays (ZEAMX) [3]; 1000 g/ha)	Pre-emergence Test IPOHE, percentage damage caused to the plant (five-point scale) ([4]; 1000 g/ha)	Pre-emergence Test AMAPA, percentage damage caused to the plant (five-point scale) ([5]; 1000 g/ha)	Pre-emergence Test AMARE, percentage damage caused to the plant (five-point scale) ([6]; 1000 g/ha)	percentage damage caused to the plant, SETFA (five-point scale) (Setaria faberi (SETFA) [7]; 250 g/Ha)	percentage damage caused to the plant, SETFA (five-point scale) (Setaria faberi (SETFA) [7]; 1000 g/ha)	percentage damage caused to the plant, ECHCG (five-point scale) ([8]; 250 g/Ha)	percentage damage caused to the plant, ECHCG (five-point scale) ([8]; 1000 g/ha)	percentage damage caused to the plant, ZEAMX (five-point scale) (Zea mays (ZEAMX) [9]; 250 g/Ha)	percentage damage caused to the plant, ZEAMX (five-point scale) (Zea mays (ZEAMX) [9]; 1000 g/ha)	percentage damage caused to the plant, IPOHE (five-point scale) ([10]; 250 g/Ha)	percentage damage caused to the plant, IPOHE (five-point scale) ([10]; 1000 g/ha)	percentage damage caused to the plant, AMAPA (five-point scale) ([11]; 250 g/Ha)	percentage damage caused to the plant, AMAPA (five-point scale) ([11]; 1000 g/ha)	percentage damage caused to the plant, AMARE (five-point scale) ([12]; 250 g/Ha)	percentage damage caused to the plant, AMARE (five-point scale) ([12]; 1000 g/ha)	further results
CCn1c(Cn2ccc(C(F)(F)F)n2)cc(=O)c(C(=O)O)c1-c1ccc(F)c(Cl)c1 [Compound 32, 2-(3-chloro-4-fluoro-phenyl)-1-ethyl-4-oxo-6-[[3-(trifluoromethyl)pyrazol-1-yl]methyl]pyridine-3-carboxylic acid]	5 (5=81-100%)	5 (5=81-100%)	4 (4=61-80%)	3 (3=41-60%)	4 (4=61-80%)	3 (3=41-60%)	4 (4=61-80%)	4 (4=61-80%)	3 (3=41-60%)	4 (4=61-80%)	1 (1=0-20%)	3 (3=41-60%)	4 (4=61-80%)	2 (2=21-40%)	2 (2=21-40%)	2 (2=21-40%)	1 (1=0-20%)	4 (4=61-80%)	–
CCn1c(Cn2ccc(C(F)(F)F)n2)cc(=O)c(C(=O)O)c1-c1ccc(Cl)c(Cl)c1 [Compound 2, 2-(3,4-dichlorophenyl)-1-ethyl-4-oxo-6-[[3-(trifluoromethyl)pyrazol-1-yl]methyl]pyridine-3-carboxylic acid]	5 (5=81-100%)	5 (5=81-100%)	4 (4=61-80%)	3 (3=41-60%)	3 (3=41-60%)	3 (3=41-60%)	4 (4=61-80%)	5 (5=81-100%)	4 (4=61-80%)	4 (4=61-80%)	4 (4=61-80%)	4 (4=61-80%)	3 (3=41-60%)	4 (4=61-80%)	3 (3=41-60%)	4 (4=61-80%)	3 (3=41-60%)	4 (4=61-80%)	Pre-emergence Test SETFA, percentage damage caused to the plant (five-point scale) (Setaria faberi (SETFA) [1]; 250 g/Ha (*)): 5 (5=81-100%); Pre-emergence Test ECHCG, percentage damage caused to the plant (five-point scale) ([2]; 250 g/Ha (*)): 5 (5=81-100%); Pre-emergence Test ZEAMX, percentage damage caused to the plant (five-point scale) (Zea mays (ZEAMX) [3]; 250 g/Ha (*)): 4 (4=61-80%); Pre-emergence Test IPOHE, percentage damage caused to the plant (five-point scale) ([4]; 250 g/Ha (*)): 4 (4=61-80%); Pre-emergence Test AMAPA, percentage damage caused to the plant (five-point scale) ([5]; 250 g/Ha (*)): 0; Pre-emergence Test AMARE, percentage damage caused to the plant (five-point scale) ([6]; 250 g/Ha (*)): 1 (1=0-20%)
